Results as given in US20240051946A1, “TARGETED PROTEIN DEGRADATION OF PARP14 FOR USE IN THERAPY” (Ribon Therapeutics, Inc., priority 2022, published 2024).
Structures can show the parent of a compound that is named as a salt. Where two headings read alike, the source gives them in different places.

Target: T1, PARP14 (Homo sapiens, UniProt Q460N5)
T1 construct: engineered to contain a HiBiT tag on both alleles of the PARP14 gene; endogenous in cells; host or cells: Jurkat cells stably expressing LgBiT (Promega), with CRISPR/Cas9 knock-in of HiBiT at the PARP14 locus
Assay: HiBiT assay for the degradation of PARP14 (HiBiT tagged PARP14 in LgBiT expressing Jurkat cells)
Format: cell-based
Conditions: Assay B, 37° C. for 2 or 24 hours, luminescence
Procedure: Jurkat cells stably transfected with LgBiT (Promega) were engineered to contain a HiBiT tag on both alleles of the PARP14 gene (Genbank Accession Number: NM_017554) via CRISPR/Cas9 editing. The HiBiT tag is an 11 amino acid tag created by Promega that associates with LgBiT protein to form the NanoLuc® tag on the C-terminus of PARP14. Clones were isolated and confirmed for the HiBiT tag via Sanger sequencing.
Degradation of PARP14 protein was assessed by measuring the luminescence of the HiBiT tag associating with the LgBiT protein as a proxy for the PARP14 protein. Jurkat cells were diluted to 250,000 cells per mL and then added to assay plate (Corning 3574) using a Multidrop (Thermo Fisher) to add 20 μL per well of the 384 well plate, resulting in 5,000 cells per well. 20 nL of a dose response curve diluted in DMSO of each test compound was added to the cell plate using a Mosquito (TTP Labtech) and the plate was incubated at 37° C. for 2 or 24 hours. Assay plate was brought to room temperature then 5 μL per well of Live Cell Substrate (Promega) was added to the plate. Luminescence was measured on an Envision (Perkin Elmer).
The average DMSO was calculated from 32 wells containing 0.1% DMSO only in columns 12 and 24 of the assay plate. The % of DMSO values were calculated as described below: […]
The % of DMSO values were plotted as a function of compound concentration and the following 4-parameter fit was applied to derive the DC50 values:
where top, bottom, and Hill Coefficient are allowed to float. Y is the % of DMSO and X is the compound concentration.
DC50 data for the Example compounds is provided below in Table 2 (“+” is <0.03 μM; “++” is ≥0.03 μM).

T1 sequence (Q460N5 whole entry): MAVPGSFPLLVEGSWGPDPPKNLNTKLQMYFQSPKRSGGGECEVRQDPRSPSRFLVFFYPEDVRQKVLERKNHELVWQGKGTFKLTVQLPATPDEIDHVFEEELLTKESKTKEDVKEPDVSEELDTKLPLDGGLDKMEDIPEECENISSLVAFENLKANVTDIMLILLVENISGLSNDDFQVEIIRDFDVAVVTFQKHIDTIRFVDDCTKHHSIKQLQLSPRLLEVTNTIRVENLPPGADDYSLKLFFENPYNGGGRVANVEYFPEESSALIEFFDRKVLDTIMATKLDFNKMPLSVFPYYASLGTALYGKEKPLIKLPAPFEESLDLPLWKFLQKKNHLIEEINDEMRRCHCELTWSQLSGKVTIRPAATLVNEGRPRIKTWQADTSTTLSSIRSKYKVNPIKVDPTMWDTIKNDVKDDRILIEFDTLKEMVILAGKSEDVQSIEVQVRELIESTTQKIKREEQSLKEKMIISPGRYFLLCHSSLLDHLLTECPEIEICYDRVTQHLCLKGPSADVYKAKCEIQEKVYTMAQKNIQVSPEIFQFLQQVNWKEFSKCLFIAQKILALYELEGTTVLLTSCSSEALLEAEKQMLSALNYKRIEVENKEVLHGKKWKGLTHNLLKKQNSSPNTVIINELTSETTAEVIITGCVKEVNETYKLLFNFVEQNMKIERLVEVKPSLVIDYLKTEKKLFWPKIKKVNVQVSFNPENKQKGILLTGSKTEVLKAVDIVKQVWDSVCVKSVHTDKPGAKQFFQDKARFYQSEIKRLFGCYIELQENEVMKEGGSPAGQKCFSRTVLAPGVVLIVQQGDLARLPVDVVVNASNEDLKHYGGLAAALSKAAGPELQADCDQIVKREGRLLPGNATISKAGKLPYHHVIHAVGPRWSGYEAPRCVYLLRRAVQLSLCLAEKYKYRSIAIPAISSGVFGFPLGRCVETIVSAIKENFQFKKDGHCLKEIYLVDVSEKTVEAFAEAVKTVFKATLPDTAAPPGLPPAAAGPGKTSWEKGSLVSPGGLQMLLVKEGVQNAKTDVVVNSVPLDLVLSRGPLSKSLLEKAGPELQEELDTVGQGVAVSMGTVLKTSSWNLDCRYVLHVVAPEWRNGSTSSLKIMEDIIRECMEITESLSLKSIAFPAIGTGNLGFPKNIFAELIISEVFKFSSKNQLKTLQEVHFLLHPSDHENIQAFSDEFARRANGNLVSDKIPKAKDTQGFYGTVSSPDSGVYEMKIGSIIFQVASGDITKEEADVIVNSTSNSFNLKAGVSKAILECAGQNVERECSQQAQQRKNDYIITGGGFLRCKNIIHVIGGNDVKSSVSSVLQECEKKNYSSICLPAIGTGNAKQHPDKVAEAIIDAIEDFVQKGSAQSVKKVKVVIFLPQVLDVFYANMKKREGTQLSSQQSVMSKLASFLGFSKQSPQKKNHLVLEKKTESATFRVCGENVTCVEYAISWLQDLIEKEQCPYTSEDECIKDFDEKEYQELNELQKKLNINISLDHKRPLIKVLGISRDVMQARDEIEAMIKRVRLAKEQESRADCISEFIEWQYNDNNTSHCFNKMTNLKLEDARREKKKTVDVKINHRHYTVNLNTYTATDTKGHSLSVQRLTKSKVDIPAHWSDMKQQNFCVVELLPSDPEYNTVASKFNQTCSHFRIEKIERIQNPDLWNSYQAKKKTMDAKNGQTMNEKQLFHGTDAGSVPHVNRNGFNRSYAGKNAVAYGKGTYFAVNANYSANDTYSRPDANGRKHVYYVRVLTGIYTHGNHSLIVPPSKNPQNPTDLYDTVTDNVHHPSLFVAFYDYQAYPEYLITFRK

| Structure (SMILES) | DC50 (read-out: DC50) | DC50 |
| --- | --- | --- |
| O=C1CCC(Nc2ccc(N3CCC(N4CCN(CCc5nc6cc(OCC7CC7)cc(F)c6c(=O)[nH]5)CC4)CC3)c(F)c2)C(=O)N1 (centres unmarked) [Example 63, 3-((4-(4-(4-(2-(7-(cyclopropylmethoxy)-5-fluoro-4-oxo-3,4-dihydroquinazolin-2-yl)ethyl)piperazin-1-yl)piperidin-1-yl)-3-fluorophenyl)amino)piperidine-2,6-dione formic salt] | < 30 nM | – |
| O=C1CCC(Nc2ccc(N3CCC(N4CC(N5CCC(SCc6nc7cc(OCC8CCOCC8)cc(F)c7c(=O)[nH]6)CC5)C4)CC3)c(F)c2)C(=O)N1 (centres unmarked) [Example 51, 3-((3-fluoro-4-(4-(3-(4-(((5-fluoro-4-oxo-7-((tetrahydro-2H-pyran-4-yl)methoxy)-3,4-dihydroquinazolin-2-yl)methyl)thio)piperidin-1-yl)azetidin-1-yl)piperidin-1-yl)phenyl)amino)piperidine-2,6-dione formate] | < 30 nM | – |
| O=C1CCN(c2cncc3c(N4CCC(N5CCC(SCc6nc7cc(OCC8CC8)cc(F)c7c(=O)[nH]6)CC5)CC4)cccc23)C(=O)N1 [Example 62, 1-(8-(4-(((7-(cyclopropylmethoxy)-5-fluoro-4-oxo-3,4-dihydroquinazolin-2-yl)methyl)thio)-[1,4′-bipiperidin]-1′-yl)isoquinolin-4-yl)dihydropyrimidine-2,4(1H,3H)-dione] | < 30 nM | – |
| O=C1CCC(Nc2ccc(N3CCN(CCO[C@H]4CC[C@H](SCc5nc6cc(OCC7CC7)cc(F)c6c(=O)[nH]5)CC4)CC3)c(F)c2)C(=O)N1 (some centres unmarked) [Example 55, 3-((4-(4-(2-(((1r,4r)-4-(((7-(cyclopropylmethoxy)-5-fluoro-4-oxo-3,4-dihydroquinazolin-2-yl)methyl)thio)cyclohexyl)oxy)ethyl)piperazin-1-yl)-3-fluorophenyl)amino)piperidine-2,6-dione] | < 30 nM | – |
| O=C1CCC(Nc2ccc(N3CCC(N4CCC(SCc5nc6cc(C#CC7CC7)cc(F)c6c(=O)[nH]5)CC4)CC3)c(F)c2)C(=O)N1 (centres unmarked) [Example 67, 3-((4-(4-(((7-(cyclopropylethynyl)-5-fluoro-4-oxo-3,4-dihydroquinazolin-2-yl)methyl)thio)-[1,4′-bipiperidin]-1′-yl)-3-fluorophenyl)amino)piperidine-2,6-dione formate] | < 30 nM | – |
| O=C1CCC(Nc2ccc(N3CCC(N4CCC(OCc5nc6cc(OCC7CC7)cc(F)c6c(=O)[nH]5)CC4)CC3)c(F)c2)C(=O)N1 (centres unmarked) [Example 53, 3-((4-(4-((7-(cyclopropylmethoxy)-5-fluoro-4-oxo-3,4-dihydroquinazolin-2-yl)methoxy)-[1,4′-bipiperidin]-1′-yl)-3-fluorophenyl)amino)piperidine-2,6-dione] | < 30 nM | – |
| O=C1CCC(Nc2ccc(N3CCN(CCN4CCC(SCc5nc6cc(OCC7CCOCC7)cc(F)c6c(=O)[nH]5)CC4)CC3)c(F)c2)C(=O)N1 (centres unmarked) [Example 46, 3-((3-fluoro-4-(4-(2-(4-(((5-fluoro-4-oxo-7-((tetrahydro-2H-pyran-4-yl)methoxy)-3,4-dihydroquinazolin-2-yl)methyl)thio)piperidin-1-yl)ethyl)piperazin-1-yl)phenyl)amino)piperidine-2,6-dione] | < 30 nM | – |
| Cn1nc(N2CCC(=O)NC2=O)c2ccc(N3CCC(N4CCC(SCc5nc6cc(OCC7CC7)cc(F)c6c(=O)[nH]5)CC4)CC3)cc21 [Example 61, 1-(6-(4-(((7-(cyclopropylmethoxy)-5-fluoro-4-oxo-3,4-dihydroquinazolin-2-yl)methyl)thio)-[1,4′-bipiperidin]-1′-yl)-1-methyl-1H-indazol-3-yl)dihydropyrimidine-2,4(1H,3H)-dione] | < 30 nM | – |
| O=C1CCC(Nc2ccc(N3CCN(CCN4CCC(OCc5nc6cc(OCC7CC7)cc(F)c6c(=O)[nH]5)CC4)CC3)c(F)c2)C(=O)N1 (centres unmarked) [Example 45, 3-((4-(4-(2-(4-((7-(cyclopropylmethoxy)-5-fluoro-4-oxo-3,4-dihydroquinazolin-2-yl)methoxy)piperidin-1-yl)ethyl)piperazin-1-yl)-3-fluorophenyl)amino)piperidine-2,6-dione] | < 30 nM | – |
| O=C1CCC(Nc2ccc(N3CCN(CCN4CCC(SCc5nc6cc(OCC7CC7)cc(F)c6c(=O)[nH]5)CC4)CC3)c(F)c2)C(=O)N1 (centres unmarked) [Example 47, 3-((4-(4-(2-(4-(((7-(cyclopropylmethoxy)-5-fluoro-4-oxo-3,4-dihydroquinazolin-2-yl)methyl)thio)piperidin-1-yl)ethyl)piperazin-1-yl)-3-fluorophenyl)amino)piperidine-2,6-dione] | < 30 nM | – |
| O=C1CCC(Nc2ccc(N3CCN(CCN4CCC(SCc5nc6cc(OCC7CC7)cc(F)c6c(=O)[nH]5)CC4)CC3)cc2)C(=O)N1 (centres unmarked) [Example 42, 3-((4-(4-(2-(4-(((7-(cyclopropylmethoxy)-5-fluoro-4-oxo-3,4-dihydroquinazolin-2-yl)methyl)thio)piperidin-1-yl)ethyl)piperazin-1-yl)phenyl)amino)piperidine-2,6-dione] | – | < 30 nM |
| O=C1CCC(Nc2ccc(N3CCC(N4CCC(CCc5nc6cc(OCC7CC7)cc(F)c6c(=O)[nH]5)CC4)CC3)c(F)c2)C(=O)N1 (centres unmarked) [Example 65, 3-((4-(4-(2-(7-(cyclopropylmethoxy)-5-fluoro-4-oxo-3,4-dihydroquinazolin-2-yl)ethyl)-[1,4′-bipiperidin]-1′-yl)-3-fluorophenyl)amino)piperidine-2,6-dione] | < 30 nM | – |
| O=C1CCC(N2Cc3cc(N4CCC(CN5CCC(SCc6nc7cc(OCC8CC8)cc(F)c7c(=O)[nH]6)CC5)CC4)ccc3C2=O)C(=O)N1 (centres unmarked) [Example 50, 3-(5-(4-((4-(((7-(cyclopropylmethoxy)-5-fluoro-4-oxo-3,4-dihydroquinazolin-2-yl)methyl)thio)piperidin-1-yl)methyl)piperidin-1-yl)-1-oxoisoindolin-2-yl)piperidine-2,6-dione] | < 30 nM | – |
| O=C1CCN(c2ccc(N3CCC(N4CCC(SCc5nc6cc(OCC7CC7)cc(F)c6c(=O)[nH]5)CC4)CC3)c(F)c2)C(=O)N1 [Example 60, 1-(4-(4-(((7-(cyclopropylmethoxy)-5-fluoro-4-oxo-3,4-dihydroquinazolin-2-yl)methyl)thio)-[1,4′-bipiperidin]-1′-yl)-3-fluorophenyl)dihydropyrimidine-2,4(1H,3H)-dione] | < 30 nM | – |

Now from value to molecule, other results behind:

| DC50 (read-out: DC50) | Structure (SMILES) | DC50 |
| --- | --- | --- |
| < 30 nM | O=C1CCC(Nc2ccc(N3CCC(N4CCC(SCc5nc6cc(OCC7CC7)cc(F)c6c(=O)[nH]5)CC4)CC3)c(C(F)(F)F)c2)C(=O)N1 (centres unmarked) [Example 57, 3-((4-(4-(((7-(cyclopropylmethoxy)-5-fluoro-4-oxo-3,4-dihydroquinazolin-2-yl)methyl)thio)-[1,4′-bipiperidin]-1′-yl)-3-(trifluoromethyl)phenyl)amino)piperidine-2,6-dione] | – |
| < 30 nM | O=C1CCC(Nc2ccc(N3CCC(N4CCC(SCc5nc6cc(OCC7CC7)cc(F)c6c(=O)[nH]5)CC4)C3)c(F)c2)C(=O)N1 (centres unmarked) [Example 59, 3-((4-(3-(4-(((7-(cyclopropylmethoxy)-5-fluoro-4-oxo-3,4-dihydroquinazolin-2-yl)methyl)thio)piperidin-1-yl)pyrrolidin-1-yl)-3-fluorophenyl)amino)piperidine-2,6-dione] | – |
| < 30 nM | O=C1CCC(Nc2cc(F)c(N3CCC(N4CCC(SCc5nc6cc(OCC7CC7)cc(F)c6c(=O)[nH]5)CC4)CC3)cc2F)C(=O)N1 (centres unmarked) [Example 58, 3-((4-(4-(((7-(cyclopropylmethoxy)-5-fluoro-4-oxo-3,4-dihydroquinazolin-2-yl)methyl)thio)-[1,4′-bipiperidin]-1′-yl)-2,5-difluorophenyl)amino)piperidine-2,6-dione] | – |
| < 30 nM | O=C1CCC(Nc2ccc(N3CCC(N4CC(N5CCC(SCc6nc7cc(OCC8CC8)cc(F)c7c(=O)[nH]6)CC5)C4)CC3)c(F)c2)C(=O)N1 (centres unmarked) [Example 48, 3-((4-(4-(3-(4-(((7-(cyclopropylmethoxy)-5-fluoro-4-oxo-3,4-dihydroquinazolin-2-yl)methyl)thio)piperidin-1-yl)azetidin-1-yl)piperidin-1-yl)-3-fluorophenyl)amino)piperidine-2,6-dione] | – |
| < 30 nM | O=C1CCC(Nc2ccc(N3CC(N4CCC(SCc5nc6cc(OCC7CC7)cc(F)c6c(=O)[nH]5)CC4)C3)c(F)c2)C(=O)N1 (centres unmarked) [Example 66, 3-((4-(3-(4-(((7-(cyclopropylmethoxy)-5-fluoro-4-oxo-3,4-dihydroquinazolin-2-yl)methyl)thio)piperidin-1-yl)azetidin-1-yl)-3-fluorophenyl)amino)piperidine-2,6-dione] | – |
| < 30 nM | O=C1CCC(Nc2ccc(N3CCC(N4CCC(SCc5nc6cc(OCC7CC7)cc(F)c6c(=O)[nH]5)CC4)CC3)c(F)c2)C(=O)N1 (centres unmarked) [Example 54, 3-((4-(4-(((7-(cyclopropylmethoxy)-5-fluoro-4-oxo-3,4-dihydroquinazolin-2-yl)methyl)thio)-[1,4′-bipiperidin]-1′-yl)-3-fluorophenyl)amino)piperidine-2,6-dione formate] | – |
